Measured values reported in article PMC4540187 (Cell Death & Disease, 2014).

Experiments:
Test in all cases: […]-ATP peptide kinase assay with TLC, purified kinase
Format in all cases: biochemical
Btk = Btk (Homo sapiens, UniProt Q06187)
Src = Src (Homo sapiens, UniProt P12931)
Itk = target: T1, Itk (Homo sapiens, UniProt Q08881)
T1 sequence (Q08881 1-620): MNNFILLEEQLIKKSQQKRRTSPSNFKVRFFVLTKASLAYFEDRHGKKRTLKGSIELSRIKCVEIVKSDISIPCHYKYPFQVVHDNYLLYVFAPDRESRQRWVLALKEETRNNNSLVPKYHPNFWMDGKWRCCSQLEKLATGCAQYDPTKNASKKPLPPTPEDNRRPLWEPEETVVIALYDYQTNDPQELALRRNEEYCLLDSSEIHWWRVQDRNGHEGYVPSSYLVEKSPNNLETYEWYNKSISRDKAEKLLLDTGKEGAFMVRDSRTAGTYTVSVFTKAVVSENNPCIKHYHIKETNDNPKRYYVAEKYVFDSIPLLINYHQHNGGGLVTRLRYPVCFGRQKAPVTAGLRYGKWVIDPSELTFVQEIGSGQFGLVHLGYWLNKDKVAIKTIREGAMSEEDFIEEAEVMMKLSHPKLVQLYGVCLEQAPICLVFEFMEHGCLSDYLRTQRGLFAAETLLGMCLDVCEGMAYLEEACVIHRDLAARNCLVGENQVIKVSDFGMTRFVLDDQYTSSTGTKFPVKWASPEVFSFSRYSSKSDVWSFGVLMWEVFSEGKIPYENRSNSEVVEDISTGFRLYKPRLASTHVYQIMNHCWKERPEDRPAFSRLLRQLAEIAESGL

Sequence of Btk (Q06187 2-659): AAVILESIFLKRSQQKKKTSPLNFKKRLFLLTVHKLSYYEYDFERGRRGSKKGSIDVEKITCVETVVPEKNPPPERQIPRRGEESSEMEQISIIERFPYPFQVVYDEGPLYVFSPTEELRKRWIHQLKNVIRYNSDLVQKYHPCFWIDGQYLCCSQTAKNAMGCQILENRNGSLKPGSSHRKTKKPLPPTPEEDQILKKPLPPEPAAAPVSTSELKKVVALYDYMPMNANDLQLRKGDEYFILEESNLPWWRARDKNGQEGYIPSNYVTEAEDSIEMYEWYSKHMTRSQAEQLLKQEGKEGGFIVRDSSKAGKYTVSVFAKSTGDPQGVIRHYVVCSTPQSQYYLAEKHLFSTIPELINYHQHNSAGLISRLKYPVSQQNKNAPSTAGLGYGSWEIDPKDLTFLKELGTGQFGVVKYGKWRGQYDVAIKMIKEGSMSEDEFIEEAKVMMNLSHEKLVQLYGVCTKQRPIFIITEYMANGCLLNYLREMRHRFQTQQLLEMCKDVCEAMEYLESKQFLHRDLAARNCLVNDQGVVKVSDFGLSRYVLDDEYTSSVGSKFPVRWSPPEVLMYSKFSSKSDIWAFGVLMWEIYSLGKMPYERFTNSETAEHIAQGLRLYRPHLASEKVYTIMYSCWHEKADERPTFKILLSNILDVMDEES
Sequence of Src (P12931 2-536): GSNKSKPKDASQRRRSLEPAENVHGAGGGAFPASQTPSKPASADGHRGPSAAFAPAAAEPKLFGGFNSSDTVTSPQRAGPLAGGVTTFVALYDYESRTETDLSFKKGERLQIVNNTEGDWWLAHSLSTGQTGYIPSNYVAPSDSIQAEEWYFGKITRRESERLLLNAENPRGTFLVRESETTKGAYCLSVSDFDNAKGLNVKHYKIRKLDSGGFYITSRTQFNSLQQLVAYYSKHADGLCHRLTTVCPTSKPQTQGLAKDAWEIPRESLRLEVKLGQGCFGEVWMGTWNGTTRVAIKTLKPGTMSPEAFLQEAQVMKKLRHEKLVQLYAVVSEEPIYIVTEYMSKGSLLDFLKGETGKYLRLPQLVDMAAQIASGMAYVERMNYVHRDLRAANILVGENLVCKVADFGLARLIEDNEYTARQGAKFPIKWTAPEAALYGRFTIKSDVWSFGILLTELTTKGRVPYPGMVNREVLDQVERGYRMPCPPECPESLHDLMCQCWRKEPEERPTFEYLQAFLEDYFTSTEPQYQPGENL

CC(C)Cc1nc2cc3c(cc2[nH]c1=O)nc(NC(=O)c1ccc(-c2ccncc2)cc1)n3CCCN1CCCCC1 [CTN06, N-(7-isobutyl-6-oxo-1-(3-(piperidin-1-yl)propyl)-5,6-dihydro-1H-imidazo[4,5-g]quinoxalin-2-yl)-4-(pyridin-4-yl)benzamide]
IC50 (Btk): ~50 nM | IC50 (Src): ~5000 nM | 33P-ATP peptide kinase assay with TLC, purified kinase (Itk): CTN06 appears to have the strongest activity toward Btk and Etk, followed by Itk, another member in the same family
